# Patent publication US7195787B1, “Skincare composition against free radicals” (The Boots Company PLC, priority 1999, dated 2007)
# Experiment: lipid peroxidation assay: protection of linoleic acid from UV light
# Format: biochemical
# Conditions: antioxidant at the printed concentration (1.50%, 0.10%, 0.10%, combination 1.70%)
# Method: The following procedure tests the ability of antioxidants to protect lipids form the damaging effects of UV light. The antioxidants to be tested are morus alba (“Mulberry Concentrate” from Aston Chemicals), magnesium ascorbyl phosphate and panax ginseng (“Phytexcell Panax ginseng” from Croda Chemicals Ltd). The antioxidants were tested individually at a particular concentration and in combination. In the test the antioxidant or combination of antioxidants is mixed with a known skin lipid (linoleic acid) and irradiated using UV light. The quantity of peroxides in each sample is measured colourimetrically after irradiation to assess the level of damage caused by peroxidation of the linoleic acid.
# A 1% lipid stock solution is prepared dissolving linoleic in an aqueous solution of octoxynol-9 (Triton X-100). Stock solutions in aqueous TBS buffer of the following antioxidants magnesium ascorbyl phosphate, morus alba and panax ginseng were prepared at 15%, 1.0% and 1.0% respectively. […]
# Using a micropipette plate 7.5 μl of each sample is pipetted into 3 wells, i.e. in triplicate, and irradiated with UV light for 40 minutes. […] The reaction that occurs causes a colour change from colourless to blue which is measured colourimetrically at 675 nm. The more peroxides present the darker the blue colouration and the higher the observed absorbance.
compound,measurement,setting,value
"O=C1O[C@H]([C@@H](O)CO)C([O-])=C1OP(=O)([O-])[O-].O=C1O[C@H]([C@@H](O)CO)C([O-])=C1OP(=O)([O-])[O-].[Mg+2].[Mg+2].[Mg+2] [Magnesium ascorbyl phosphate, magnesium ascorbyl phosphate]",Absorbance,"675 nm, after 40 minutes UV, 0.5% linoleic acid",0.84
same,percentage of peroxidation observed when compared to that seen with the irradiated controls,40 minutes UV,>100%
